# Test results reported in patent US12492173B2, “Herbicidal substituted N-tetrazolyl aryl carboxamides” (Bayer Aktiengesellschaft, priority 2019, dated 2025).
# Tests used:
# Type in all cases: in vivo
# Echinochloa crus-galli = test: Pre-emergence herbicidal action, ECHCG; conditions: dosage 320 g/ha; for herbicidal activity ECHCG: scored visually after 3 weeks vs untreated controls (100% = plants have died)
# Outline: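 Greenhouse pre-emergence test: formulated compound (WP or EC) applied in water to the soil covering sown seeds, 600–800 l/ha, 0.2% wetting agent. Scored visually in percent at 3 weeks versus untreated plants.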
# Abutilon theophrasti = test: Post-emergence herbicidal action, ABUTH; design: key: % herbicidal action vs untreated; 100 = plants died, 0 = like control; conditions: Dosage 80 g/ha
# Outline: (§1)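 Treatment: post-emergence spray, one-leaf stage. Medium: sandy loam, greenhouse. Carrier: 600–800 l/ha water, 0.2% wetting agent. Read-out: visual % activity at ~3 weeks, untreated plants as reference.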
# Setaria viridis = test: Post-emergence herbicidal action, SETVI; design: key: % herbicidal action vs untreated; 100 = plants died, 0 = like control; conditions: for herbicidal action SETVI: Dosage 80 g/ha
# Outline: as §1
# Stellaria media = test: Post-emergence herbicidal action, STEME; design: key: % herbicidal action vs untreated; 100 = plants died, 0 = like control; conditions: for herbicidal action STEME: Dosage 80 g/ha
# Outline: as §1
# Viola tricolor = test: Post-emergence herbicidal action, VIOTR; design: key: % herbicidal action vs untreated; 100 = plants died, 0 = like control; conditions: for herbicidal action VIOTR: Dosage 80 g/ha; for Herbicidal action against VIOTR: post-emergence
# Outline: as §1
Compound,herbicidal activity ECHCG (Echinochloa crus-galli) [%],herbicidal action ABUTH (Abutilon theophrasti),herbicidal action SETVI (Setaria viridis),"Herbicidal action against SETVI (Setaria viridis; post-emergence, dosage 80 g/ha)",herbicidal action STEME (Stellaria media),"Herbicidal action against STEME (Stellaria media; post-emergence, dosage 80 g/ha)",herbicidal action VIOTR (Viola tricolor),"Herbicidal action against VIOTR (Viola tricolor; comparative experiment, 5 g of a.i./ha)",Herbicidal action against VIOTR (Viola tricolor; dosage 80 g/ha),herbicidal action ECHCG (Echinochloa crus-galli) [%]
COc1c(C(=O)Nc2nnnn2C)ccc(C(F)(F)F)c1CSC [Example 1-134],100,100,100,100,100,90,100,100,100,–
CCCn1nnnc1NC(=O)c1ccc(C(F)(F)F)c(CS(=O)(=O)CC)c1C [Example 3-88],100,80,90,–,100,–,100,–,–,–
CCCn1nnnc1NC(=O)c1ccc(C(F)F)c(C[S+]([O-])CC)c1Cl (centres unmarked) [Example 3-324],100,100,100,–,100,–,100,–,–,–
Cn1nnnc1NC(=O)c1ccc(C(F)(F)F)c(C[S+](C)[O-])c1F (centres unmarked) [Example 1-243],100,90,100,–,100,–,100,–,–,–
Cn1nnnc1NC(=O)c1ccc(Cl)c(CS(C)(=O)=O)c1Cl [Example 1-561],100,90,100,–,100,–,100,–,–,–
Cc1c(C(=O)Nc2nnnn2C)ccc(C(F)F)c1CS(C)(=O)=O [Example 1-109],90,90,90,–,100,–,100,–,–,–
CSCc1c(C(F)(F)F)ccc(C(=O)Nc2nnnn2C)c1F [Example 1-242],100,90,90,–,100,–,100,–,–,–
CCCn1nnnc1NC(=O)c1ccc(C(F)F)c(CSC)c1C [Example 3-107],100,80,90,–,80,–,100,–,–,–
"Cn1nnnc1NC(=O)c1ccc(C(F)(F)F)c(CS(C)(=O)=O)c1Br [Example 1-382, 2-bromo-3-[(methylsulfonyl)methyl]-N-(1-methyl-1H-tetrazol-5-yl)-4-(trifluoromethyl)benzamide]",100,100,90,–,100,–,100,–,–,–
CCn1nnnc1NC(=O)c1ccc(C(F)(F)F)c(C[S+](C)[O-])c1OC (centres unmarked) [Example 2-135],100,100,100,–,100,–,100,–,–,–
CCCn1nnnc1NC(=O)c1ccc(C(F)(F)F)c(CSC)c1OC [Example 3-134],100,100,100,–,100,–,100,–,–,–
CCCn1nnnc1NC(=O)c1ccc(C(F)(F)F)c(CS(=O)(=O)CC)c1Br [Example 3-385],100,100,90,–,100,–,100,–,–,–
Cn1nnnc1NC(=O)c1ccc(C(F)(F)F)c(CS(C)(=O)=O)c1F [Example 1-244],100,90,100,–,100,–,100,–,–,–
CCn1nnnc1NC(=O)c1ccc(S(C)(=O)=O)c(CS(C)(=O)=O)c1C [Example 2-39],–,90,100,–,100,–,100,–,–,90
